The values that follow come from patent US5081112A, “Method for treating hyperlipidemia” (Otsuka Pharmaceutical Factory Inc., priority 1986, dated 1992).

The subject of assay [1] is biosynthetic pathway of cholesterol. Briefly: inhibitory effect in biosynthetic pathway of cholesterol. It counts as biochemical. The following applies: 10^-4 M; rat liver microsomes and soluble fraction; 90 min, 100 µM. As for the experimental part: Test for determining inhibitory effect in biosynthetic pathway of cholesterol
Each one of the test compounds was added to rat liver microsomes fraction (containing 0.2 mg of protein) and soluble fraction (containing 2 mg of protein), then the volume of the mixture was adjusted to 100 microliters by adding 0.1 M-potassium phosphate buffer solution (pH 7.4), then this mixture was incubated at 37° C. for 10 minutes.
After the incubation, the reaction was started by adding 200 microliters of a solution containing 1 mM ATP, 10 mM glucose-1-phosphate, 6 mM glutathione, 6 mM MgCl2, […], 0.25 mM […], 0.25 mM NADP, and 1 mM [1-^14 C] sodium acetate (3.0 mCi/mM).
The whole mixture was incubated at 37° C. for 90 minutes, then the reaction was terminated by adding […] of 15%-KOH (a 95% ethanol solution), next 2 mg of cholesterol was added thereto, saponified at 75° C. for 1 hour, and cholesterol was extracted with petroleum ether, the extract was concentrated to dryness. To the residue thus obtained was added with 2.5 ml of a mixture of acetone-diethyl ether (1:1) and 2.5 ml of 1%-digitonin (a 50% ethanol solution), then this solution was allowed to stand for 1 hour in cooling condition by using ice-water to precipitate cholesterol. The precipitate was washed with acetone, a mixture of acetonediethyl ether (1:1) and diethyl ether in this order, then the radioactivity of the residue was measured by using a liquid scintillation counter.
Control test was also conducted by the procedures similar to those mentioned above in the test group, except that each one of the test compounds was not used.
Inhibitory effect in biosynthetic pathway of cholesterol performed by each one of the test compounds was calculated, in terms of inhibitory ratio (%), from the formula on the basis of the radioactivity of the control group as follows: [formula] (wherein
[c] is a radioactivity of the control group, and
[d] is a radio activity of the test group).

Assay [2] concerns Triton WR-1339-induced hyperlipidemia in rat. Briefly: antilipotropic effect in Triton WR-1339-induced hyperlipidemia in rat. Type of assay: in vivo, Wistar-strain male rats. The following applies: 50 mg/kg oral, vs control. The text has this: Wistar-strain male rats of 5-9 week age were used as test animals. One test group consisting of six (6) rats.
[a] is a determined value obtained from the control group, and
[b] is a determined value obtained from the test group).

The mark [3] stands for this setting: 24 hours after Triton WR-1339 (400 mg/kg, tail vein), read-out: lowering ratio of serum triglycerides, 24 hours after Triton WR-1339.
The mark [4] stands for this setting: 24 hours after Triton WR-1339 (400 mg/kg, tail vein), read-out: lowering ratio of total serum cholesterol, 24 hours after Triton WR-1339.
Where [5] appears, read: 48 hours after Triton WR-1339 (400 mg/kg, tail vein), read-out: lowering ratio of serum triglycerides, 48 hours after Triton WR-1339.
Where [6] appears, read: 48 hours after Triton WR-1339 (400 mg/kg, tail vein), read-out: lowering ratio of total serum cholesterol, 48 hours after Triton WR-1339.

Structures are written as SMILES. Like-named read-outs stand apart in the source and are kept apart here.

On to `CCOP(=O)(Cc1ccc(C(=O)N(Cc2ccccc2)c2ccc(C#N)cc2)cc1)OCC` [compound 49], for which the “Inhibitory ratio of cholesterol biosynthesis” value (shortened to “Inhibitory ratio”) in assay [1] is reported as 75.2%.
Turning to `CCOP(=O)(Cc1ccc(C(=O)N(c2ccccc2)C2CCCCC2)cc1)OCC` [compound 35], in assay [1], the “Inhibitory ratio” value stood at 39.2%.
Still for that read-out and setting: then `CCOP(=O)(Cc1ccc(C(=O)N(Cc2ccccc2)c2ccc(C)cc2)cc1)OCC` [compound 46], with 59.1%.
As to `CCCCCCCCC(c1ccc(C(=O)N(CCCCCCCC)c2ccccc2)cc1)P(=O)(OCC)OCC` (stereo not drawn) [compound 34], the “Inhibitory ratio” value in assay [1] was determined as 85.2%.
As to `CCOP(=O)(Cc1ccc(C(=O)N(c2ccc(Cl)cc2)C2CCCC2)cc1)OCC` [compound 15], the inhibition in vivo at 50 mg/kg in assay [2] (setting [3]) is 23%; in assay [2] (setting [4]), 9.8%; in assay [2] (setting [5]), 55.8%; in assay [2] (setting [6]) it was 22.6%.
Consider `CCOP(=O)(Cc1ccc(C(=O)N2CCN(C)CC2)cc1)OCC` [compound 56], for which, in assay [1], the “Inhibitory ratio” value is listed as 23.6%.
Same read-out and setting: then `CCOP(=O)(Cc1ccc(C(=O)N(CCc2ccccc2)c2ccccc2)cc1)OCC` [compound 42], with 86.7%.
The same measure, in the same setting: then `CCOP(=O)(Cc1ccc(C(=O)N(Cc2ccccc2)c2ccc(OC)c(OC)c2)cc1)OCC` [compound 53], with 59.0%; and `CCOP(=O)(Cc1ccc(C(=O)N(Cc2ccc(OC)cc2)c2ccccc2)cc1)OCC` [compound 38], with 85.2%; and `CCOP(=O)(Cc1ccc(C(=O)Nc2ccccc2Br)cc1)OCC` [compound 55], with 57.1%.
For `CCOP(=O)(Cc1ccc(C(=O)N(Cc2ccc(Cl)cc2)c2ccc(Cl)c(Cl)c2)cc1)OCC` [compound 17], the inhibition in vivo at 50 mg/kg in assay [2] (setting [3]) was 56.8%; in assay [2] (setting [4]), 27.8%; in assay [2] (setting [5]), 94.1%; in assay [2] (setting [6]), 64.4%.
The like results for `CCOP(=O)(Cc1ccc(C(=O)Nc2ccc(C(F)(F)F)cc2)cc1)OCC` [compound 13] were, in that order, 73.9%, 33.7%, 95.4% and 64.4%.
For `CCOP(=O)(Cc1ccc(C(=O)Nc2ccc(I)cc2)cc1)OCC` [compound 16], in that order: 94.1%, 64%, 95.3% and 75.1%.
As to `CCOP(=O)(Cc1ccc(C(=O)Nc2ccc(C#N)cc2)cc1)OCC` [compound 19], the inhibition in vivo at 50 mg/kg in assay [2] (setting [3]) worked out at 90.5%; in assay [2] (setting [4]), 60.6%; in assay [2] (setting [5]), 94.7%; in assay [2] (setting [6]), 63.6%.
Take `CCOP(=O)(OCC)C(Cc1ccccc1)c1ccc(C(=O)N(Cc2ccccc2)c2cccc(C(F)(F)F)c2)cc1` (stereo not drawn) [compound 51]: the “Inhibitory ratio” value in assay [1] is recorded as 70.4%.
`CCOP(=O)(Cc1ccc(C(=O)N(Cc2ccc(Cl)cc2)c2ccc(Cl)cc2)cc1)OCC` [compound 21]: the inhibition in vivo at 50 mg/kg in assay [2] (setting [3]) is 47.9%; in assay [2] (setting [4]), 15.9%; in assay [2] (setting [5]) it was 89.1%; in assay [2] (setting [6]) it was 52.3%.
Take `CCOP(=O)(Cc1ccc(C(=O)Nc2ccc([N+](=O)[O-])cc2)cc1)OCC` [compound 18]: the inhibition in vivo at 50 mg/kg in assay [2] (setting [3]) came out at 54.4%; in assay [2] (setting [4]), 32.7%; in assay [2] (setting [5]), 74.9%; in assay [2] (setting [6]) it was 37.5%.
In the case of `CCOP(=O)(OCC)C(C)c1ccc(C(=O)N(CCc2ccccc2)Cc2ccccc2)cc1` (stereo not drawn) [compound 62], the “Inhibitory ratio” value in assay [1] stood at 80.2%.
On to `CCOP(=O)(Cc1ccc(C(=S)N(C)Cc2ccccc2)cc1)OCC` [compound 68], for which the “Inhibitory ratio” value in assay [1] amounted to 57.2%.
Consider `CCOP(=O)(Cc1cccc(C(=O)N(c2ccccc2)c2ccc(C(=O)OC)cc2)c1)OCC` [compound 24], for which the “Inhibitory ratio” value in assay [1] is listed as 21.6%.
On the same count and under the same terms, the same measure for `CCOP(=O)(Cc1ccc(C(=O)N(Cc2ccccc2)C(C)C)cc1)OCC` [compound 44]: 46.2%.
As to `CCOP(=O)(Cc1ccc(C(=O)N(C)c2ccc(Cl)cc2)cc1)OCC` [compound 14], the figures for the inhibition in vivo at 50 mg/kg in assay [2] (setting [3]), in assay [2] (setting [4]) and in assay [2] (setting [6]) were 46%, 29.3% and 49.4%, respectively.
For the compound `CCOP(=O)(Cc1ccc(C(=O)N(Cc2ccccc2)Cc2ccccc2)cc1)OCC` [compound 54], the “Inhibitory ratio” value in assay [1] worked out at 69.7%.
Regarding `CCOP(=O)(Cc1ccc(C(=O)Nc2ccc(F)cc2)cc1)OCC` [compound 20], the inhibition in vivo at 50 mg/kg was 57.3% in assay [2] (setting [3]), 27% in assay [2] (setting [4]), 90.5% in assay [2] (setting [5]) and 55.1% in assay [2] (setting [6]).
Take `CCOP(=O)(Cc1ccc(C(=O)N(Cc2ccccc2)c2ccc(OC)cc2)cc1)OCC` [compound 48]: in assay [1], the “Inhibitory ratio” value is 63.7%.
On the same count and under the same terms, the same measure for `CCOP(=O)(Cc1ccc(C(=S)N(Cc2ccccc2)Cc2ccccc2)cc1)OCC` [compound 69]: 85.3%; for `CCCCCCCCN(C(=O)c1ccc(CP(=O)(OCC)OCC)cc1)c1ccccc1` [compound 33]: 89.6%.
The same measure, in the same setting: the same measure for `CCOP(=O)(Cc1ccc(C(=O)N2CCN(c3ccc(OC)cc3)CC2)cc1)OCC` [compound 59]: 55.1%.
Consider `CCOP(=O)(Cc1ccc(C(=O)N(Cc2ccccc2)c2ccc(C(F)(F)F)cc2)cc1)OCC` [compound 12], for which the inhibition in vivo at 50 mg/kg in assay [2] (setting [3]) is 60.4%; in assay [2] (setting [4]), 36.9%; in assay [2] (setting [5]), 83.9%.
`CCOP(=O)(Cc1ccc(C(=O)N2CCN(c3ccccc3C)CC2)cc1)OCC` [compound 57]: in assay [1], the “Inhibitory ratio” value was determined as 41.9%.
In the case of `CCOP(=O)(Cc1ccc(C(=O)NCCc2ccc(OC)c(OC)c2)cc1)OCC` [compound 30], the “Inhibitory ratio” value in assay [1] is given as 28.9%.
Still for that read-out and setting: then `CCOP(=O)(Cc1ccc(C(=S)N(C)c2ccccc2)cc1)OCC` [compound 67], with 32.5%.
Take `CCOP(=O)(Cc1ccc(C(=O)Nc2ccc(Cl)c(C(F)(F)F)c2)cc1)OCC` [compound 9]: the inhibition in vivo at 50 mg/kg in assay [2] (setting [3]) was found to be 11.3%; in assay [2] (setting [4]) it was 11.7%; in assay [2] (setting [5]) it was 68.4%; in assay [2] (setting [6]) it was 42.3%.
For `CCOP(=O)(Cc1ccc(C(=O)N2CCN(c3cccc(C(F)(F)F)c3)CC2)cc1)OCC` [compound 60], in assay [1], the “Inhibitory ratio” value is 24.9%.
The same measure, in the same setting: then `CCOP(=O)(Cc1ccc(C(=O)Nc2ccccc2O)cc1)OCC` [compound 28], with 22.1%.
Same read-out and setting: the same measure for `CCOP(=O)(Cc1ccc(C(=O)N(C)Cc2ccccc2)cc1)OCC` [compound 43]: 23.8%.
Take `CCOP(=O)(Cc1ccccc1C(=O)N(Cc1ccc(C#N)cc1)c1ccc(OC)cc1)OCC` [compound 25]: in assay [1], the “Inhibitory ratio” value was found to be 20.1%.
Consider `CCOP(=O)(Cc1ccc(C(=O)Nc2ccc(OC)cc2)cc1)OCC` [compound 23], for which the inhibition in vivo at 50 mg/kg amounted to 25.5% in assay [2] (setting [3]), 17.3% in assay [2] (setting [4]), 27.6% in assay [2] (setting [5]) and 32.5% in assay [2] (setting [6]).
